Paper doi:10.1101/2020.06.11.145995v1 (biorxiv, 2020)

Key:
Test in all cases: biochemical
[1] = target: PKNB(M.tuberculosis) (Mycobacterium tuberculosis, UniProt P9WI81); conditions: read-out: CPT-1-70-1 (1μM) % control
[2] = target: ABL1(E255K)-phosphorylated (Homo sapiens, UniProt P00519, E255K); conditions: read-out: CPT-1-70-1 (1μM) % control
[3] = target: PFPK5(P.falciparum) (Plasmodium falciparum, UniProt P61075); conditions: read-out: CPT-1-70-1 (1μM) % control
[4] = target: PFCDPK1(P.falciparum) (Plasmodium falciparum, UniProt P62344); conditions: read-out: CPT-1-70-1 (1μM) % control
[5] = target: EPHA5 (Homo sapiens, UniProt P54756); conditions: read-out: CPT-1-70-1 (1uM) % control
Sequence of EPHA5 (P54756 whole entry): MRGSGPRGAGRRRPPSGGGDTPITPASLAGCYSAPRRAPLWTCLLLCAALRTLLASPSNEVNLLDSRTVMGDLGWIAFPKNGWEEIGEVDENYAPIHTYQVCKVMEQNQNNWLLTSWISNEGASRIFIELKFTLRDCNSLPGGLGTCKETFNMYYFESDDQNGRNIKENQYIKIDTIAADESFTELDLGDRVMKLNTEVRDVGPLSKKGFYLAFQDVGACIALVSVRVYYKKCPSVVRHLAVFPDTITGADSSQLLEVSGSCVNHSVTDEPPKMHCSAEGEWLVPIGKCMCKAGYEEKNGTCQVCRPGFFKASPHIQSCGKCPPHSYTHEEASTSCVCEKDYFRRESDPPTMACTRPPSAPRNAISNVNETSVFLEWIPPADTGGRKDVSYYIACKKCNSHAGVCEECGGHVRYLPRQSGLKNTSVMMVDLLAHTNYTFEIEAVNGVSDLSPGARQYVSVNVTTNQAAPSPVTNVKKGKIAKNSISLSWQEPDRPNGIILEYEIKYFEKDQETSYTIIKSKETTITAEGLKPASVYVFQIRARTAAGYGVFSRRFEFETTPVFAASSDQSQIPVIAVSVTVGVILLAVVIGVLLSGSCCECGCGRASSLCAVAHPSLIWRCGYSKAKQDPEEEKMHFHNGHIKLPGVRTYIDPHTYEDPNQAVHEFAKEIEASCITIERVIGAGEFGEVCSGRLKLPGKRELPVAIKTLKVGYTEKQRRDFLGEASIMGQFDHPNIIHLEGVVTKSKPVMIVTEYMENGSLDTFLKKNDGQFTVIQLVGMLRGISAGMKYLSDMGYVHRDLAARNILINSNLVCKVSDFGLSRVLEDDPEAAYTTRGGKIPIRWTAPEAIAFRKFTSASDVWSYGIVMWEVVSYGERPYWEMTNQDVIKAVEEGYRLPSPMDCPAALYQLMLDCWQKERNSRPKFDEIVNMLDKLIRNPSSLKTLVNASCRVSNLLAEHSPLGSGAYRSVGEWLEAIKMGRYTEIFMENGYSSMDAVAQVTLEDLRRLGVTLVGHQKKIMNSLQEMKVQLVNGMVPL

[6] = target: EGFR(T790M) (Homo sapiens, UniProt P00533, T790M); conditions: read-out: CPT-1-70-1 (1uM) % control
[7] = target: HASPIN (Homo sapiens, UniProt Q8TF76); conditions: read-out: CPT-1-70-1 (1uM) % control
Sequence of HASPIN (Q8TF76 whole entry): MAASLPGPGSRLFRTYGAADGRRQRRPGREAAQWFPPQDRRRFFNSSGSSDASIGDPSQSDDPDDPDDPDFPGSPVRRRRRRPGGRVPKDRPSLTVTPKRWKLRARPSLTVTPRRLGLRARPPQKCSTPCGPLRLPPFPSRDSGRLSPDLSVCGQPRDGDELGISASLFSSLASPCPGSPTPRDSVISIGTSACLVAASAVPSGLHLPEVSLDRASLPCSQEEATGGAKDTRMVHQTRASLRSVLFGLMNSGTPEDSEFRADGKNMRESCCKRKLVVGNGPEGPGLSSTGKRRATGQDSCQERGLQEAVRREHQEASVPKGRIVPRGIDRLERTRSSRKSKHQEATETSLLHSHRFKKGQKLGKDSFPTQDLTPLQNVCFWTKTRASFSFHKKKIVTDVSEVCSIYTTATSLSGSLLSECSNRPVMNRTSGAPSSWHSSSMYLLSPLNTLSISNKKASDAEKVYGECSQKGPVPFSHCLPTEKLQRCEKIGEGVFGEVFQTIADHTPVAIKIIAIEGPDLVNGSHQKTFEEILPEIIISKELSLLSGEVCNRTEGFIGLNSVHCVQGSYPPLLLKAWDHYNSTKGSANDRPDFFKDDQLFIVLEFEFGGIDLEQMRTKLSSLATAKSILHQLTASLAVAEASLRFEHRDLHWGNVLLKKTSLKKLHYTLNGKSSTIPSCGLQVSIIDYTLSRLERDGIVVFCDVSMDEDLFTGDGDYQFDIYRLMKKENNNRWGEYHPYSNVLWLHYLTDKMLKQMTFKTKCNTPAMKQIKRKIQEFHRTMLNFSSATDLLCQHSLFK

[8] = target: ERK4 (Homo sapiens, UniProt P31152); conditions: read-out: CPT-1-70-1 (1uM) % control
[9] = target: PIK3CG (Homo sapiens, UniProt P48736); conditions: read-out: CPT-1-70-1 (1μM) % control
[10] = target: PKMYT1 (Homo sapiens, UniProt Q99640); conditions: read-out: CPT-1-70-1 (1μM) % control
[11] = target: PIM2 (Homo sapiens, UniProt Q9P1W9); conditions: read-out: CPT-1-70-1 (1μM) % control
Sequence of PIM2 (Q9P1W9 whole entry): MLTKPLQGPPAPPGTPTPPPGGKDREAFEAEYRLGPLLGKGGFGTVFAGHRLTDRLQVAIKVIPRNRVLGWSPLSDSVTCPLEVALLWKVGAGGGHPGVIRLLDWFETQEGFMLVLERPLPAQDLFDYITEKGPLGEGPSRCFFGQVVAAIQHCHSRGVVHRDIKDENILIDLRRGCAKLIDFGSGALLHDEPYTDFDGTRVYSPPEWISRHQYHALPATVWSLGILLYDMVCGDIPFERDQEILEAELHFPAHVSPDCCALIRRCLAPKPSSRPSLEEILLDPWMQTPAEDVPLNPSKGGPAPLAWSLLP

[12] = target: PIK3CB (Homo sapiens, UniProt P42338); conditions: read-out: CPT-1-70-1 (1μM) % control
[13] = target: PIP5K2C (Homo sapiens, UniProt Q8TBX8); conditions: read-out: CPT-1-70-1 (1μM) % control
[14] = target: NIK (Homo sapiens, UniProt Q99558); conditions: read-out: CPT-1-70-1 (1μM) % control
[15] = target: PIM1 (Homo sapiens, UniProt P11309); conditions: read-out: CPT-1-70-1 (1μM) % control
Sequence of PIM1 (P11309 whole entry): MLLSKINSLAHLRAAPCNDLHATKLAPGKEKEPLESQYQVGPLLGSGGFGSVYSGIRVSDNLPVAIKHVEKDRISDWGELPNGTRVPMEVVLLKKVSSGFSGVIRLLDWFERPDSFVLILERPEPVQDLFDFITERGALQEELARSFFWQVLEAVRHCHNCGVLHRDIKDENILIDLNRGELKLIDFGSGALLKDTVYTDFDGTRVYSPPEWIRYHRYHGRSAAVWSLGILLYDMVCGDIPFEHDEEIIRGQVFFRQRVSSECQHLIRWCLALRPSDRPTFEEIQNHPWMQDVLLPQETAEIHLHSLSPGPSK

[16] = target: PIK4CB (Homo sapiens, UniProt Q9UBF8); conditions: read-out: CPT-1-70-1 (1μM) % control
[17] = target: PIK3CD (Homo sapiens, UniProt O00329); conditions: read-out: CPT-1-70-1 (1μM) % control
[18] = target: SGK2 (Homo sapiens, UniProt Q9HBY8); conditions: read-out: CPT-1-70-1 (1μM) % control
[19] = target: PKN1 (Homo sapiens, UniProt Q16512); conditions: read-out: CPT-1-70-1 (1μM) % control
[20] = target: PIM3 (Homo sapiens, UniProt Q86V86); conditions: read-out: CPT-1-70-1 (1μM) % control
[21] = target: WNK3 (Homo sapiens, UniProt Q9BYP7); conditions: read-out: CPT-1-70-1 (1μM) % control
[22] = target: PIK3CA(Q546K) (Homo sapiens, UniProt P42336, Q546K); conditions: read-out: CPT-1-70-1 (1μM) % control
Sequence of PIK3CA(Q546K) (P42336 whole entry Q546K): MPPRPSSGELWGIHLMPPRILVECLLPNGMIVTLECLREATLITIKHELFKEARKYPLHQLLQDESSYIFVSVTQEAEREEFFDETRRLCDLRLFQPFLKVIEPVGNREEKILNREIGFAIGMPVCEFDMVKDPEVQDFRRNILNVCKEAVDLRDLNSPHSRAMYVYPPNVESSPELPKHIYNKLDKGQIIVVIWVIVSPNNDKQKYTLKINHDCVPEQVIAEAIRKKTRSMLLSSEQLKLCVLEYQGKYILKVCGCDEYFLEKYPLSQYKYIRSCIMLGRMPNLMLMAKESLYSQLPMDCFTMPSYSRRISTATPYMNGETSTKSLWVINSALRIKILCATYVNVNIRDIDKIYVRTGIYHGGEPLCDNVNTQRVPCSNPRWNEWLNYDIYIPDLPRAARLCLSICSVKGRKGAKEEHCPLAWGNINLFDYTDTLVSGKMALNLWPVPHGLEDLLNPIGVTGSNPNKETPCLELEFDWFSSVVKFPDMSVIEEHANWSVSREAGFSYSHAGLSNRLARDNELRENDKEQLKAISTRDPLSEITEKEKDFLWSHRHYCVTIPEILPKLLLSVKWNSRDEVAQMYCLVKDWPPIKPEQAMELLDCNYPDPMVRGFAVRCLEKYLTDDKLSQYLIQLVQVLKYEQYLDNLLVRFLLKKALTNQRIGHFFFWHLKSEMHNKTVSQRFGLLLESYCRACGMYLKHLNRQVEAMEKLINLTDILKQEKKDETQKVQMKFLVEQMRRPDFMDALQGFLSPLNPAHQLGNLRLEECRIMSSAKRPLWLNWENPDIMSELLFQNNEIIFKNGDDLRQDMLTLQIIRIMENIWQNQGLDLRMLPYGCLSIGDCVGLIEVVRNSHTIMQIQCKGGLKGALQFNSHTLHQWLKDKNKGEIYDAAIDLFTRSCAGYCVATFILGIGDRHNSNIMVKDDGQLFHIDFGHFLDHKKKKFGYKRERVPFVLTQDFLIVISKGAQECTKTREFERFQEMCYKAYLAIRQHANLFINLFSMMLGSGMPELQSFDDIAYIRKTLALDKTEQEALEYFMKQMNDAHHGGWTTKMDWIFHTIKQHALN

[23] = target: PIP5K1A (Homo sapiens, UniProt Q99755); conditions: read-out: CPT-1-70-1 (1μM) % control
[24] = target: PIP5K1C (Homo sapiens, UniProt O60331); conditions: read-out: CPT-1-70-1 (1μM) % control
[25] = target: SGK (Homo sapiens, UniProt O00141); conditions: read-out: CPT-1-70-1 (1μM) % control
[26] = target: PKAC-beta (Homo sapiens, UniProt P22694); conditions: read-out: CPT-1-70-1 (1μM) % control
[27] = target: NEK10 (Homo sapiens, UniProt Q6ZWH5); conditions: read-out: CPT-1-70-1 (1μM) % control
Sequence of NEK10 (Q6ZWH5 whole entry): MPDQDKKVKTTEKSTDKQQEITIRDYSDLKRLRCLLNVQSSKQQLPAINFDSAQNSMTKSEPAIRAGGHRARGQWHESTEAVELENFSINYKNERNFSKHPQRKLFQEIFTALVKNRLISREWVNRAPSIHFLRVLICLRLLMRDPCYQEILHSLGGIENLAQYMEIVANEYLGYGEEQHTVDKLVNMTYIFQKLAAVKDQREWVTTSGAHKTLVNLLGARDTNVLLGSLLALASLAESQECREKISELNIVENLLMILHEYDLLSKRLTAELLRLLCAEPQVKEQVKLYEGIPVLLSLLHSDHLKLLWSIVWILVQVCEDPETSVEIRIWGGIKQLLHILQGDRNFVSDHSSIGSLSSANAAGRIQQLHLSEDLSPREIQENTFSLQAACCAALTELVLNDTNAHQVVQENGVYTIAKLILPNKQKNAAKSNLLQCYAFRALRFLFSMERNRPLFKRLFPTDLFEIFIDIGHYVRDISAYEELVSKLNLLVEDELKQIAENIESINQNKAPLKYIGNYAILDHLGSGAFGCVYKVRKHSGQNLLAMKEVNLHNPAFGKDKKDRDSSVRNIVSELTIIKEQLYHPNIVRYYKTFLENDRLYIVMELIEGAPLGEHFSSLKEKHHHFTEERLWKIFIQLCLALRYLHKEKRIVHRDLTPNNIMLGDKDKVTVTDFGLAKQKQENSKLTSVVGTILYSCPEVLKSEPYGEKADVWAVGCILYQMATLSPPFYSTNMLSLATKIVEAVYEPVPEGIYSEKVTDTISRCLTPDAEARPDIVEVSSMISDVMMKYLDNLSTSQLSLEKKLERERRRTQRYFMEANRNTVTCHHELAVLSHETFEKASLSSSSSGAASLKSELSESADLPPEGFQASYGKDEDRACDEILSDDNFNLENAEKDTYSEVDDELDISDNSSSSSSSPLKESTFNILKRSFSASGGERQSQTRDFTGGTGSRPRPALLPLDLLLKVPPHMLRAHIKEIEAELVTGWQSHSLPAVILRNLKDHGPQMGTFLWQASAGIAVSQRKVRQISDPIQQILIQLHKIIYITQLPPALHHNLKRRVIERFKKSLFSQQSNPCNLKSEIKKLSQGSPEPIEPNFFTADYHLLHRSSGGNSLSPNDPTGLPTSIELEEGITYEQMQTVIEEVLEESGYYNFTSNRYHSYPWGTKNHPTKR

[28] = target: WNK1 (Homo sapiens, UniProt Q9H4A3); conditions: read-out: CPT-1-70-1 (1μM) % control
[29] = target: PIP5K2B (Homo sapiens, UniProt P78356); conditions: read-out: CPT-1-70-1 (1μM) % control

CN1CCN(c2ccc(Nc3nc(Oc4ccc(NC(=O)CCl)cc4)c4cc[nH]c4n3)cc2)CC1 [CPT1-70-1]
remaining activity at 1 µM [1]: 58% | remaining activity at 1 µM [2]: 90% | remaining activity at 1 µM [3]: 100% | remaining activity at 1 µM [4]: 100% | remaining activity at 1 µM [5]: 100% | remaining activity at 1 µM [6]: 0.8% | remaining activity at 1 µM [7]: 100% | remaining activity at 1 µM [8]: 96% | remaining activity at 1 µM [9]: 100% | remaining activity at 1 µM [10]: 94% | remaining activity at 1 µM [11]: 100% | remaining activity at 1 µM [12]: 100% | remaining activity at 1 µM [13]: 63% | remaining activity at 1 µM [14]: 100% | remaining activity at 1 µM [15]: 100% | remaining activity at 1 µM [16]: 100% | remaining activity at 1 µM [17]: 100% | remaining activity at 1 µM [18]: 100% | remaining activity at 1 µM [19]: 79% | remaining activity at 1 µM [20]: 81% | remaining activity at 1 µM [21]: 100% | remaining activity at 1 µM [22]: 100% | remaining activity at 1 µM [23]: 13% | remaining activity at 1 µM [24]: 57% | remaining activity at 1 µM [25]: 26% | remaining activity at 1 µM [26]: 100% | remaining activity at 1 µM [27]: 14% | remaining activity at 1 µM [28]: 100% | remaining activity at 1 µM [29]: 100%
